Source: patent publication US20050054587A1, “Novel therapeutic indication of azithromycin for treatment of non-infective inflamatory diseases” (priority 2001, published 2005)

System: IL-1
Assay: Serum IL-1 concentration, ELISA
Type: in vivo, human
Details: healthy volunteers, azithromycin 3×500 mg, baseline 0.291 ± 0.11
Method: A trial on healthy volunteers was conducted and the influence of azithromycin given in a dosage of 3×500 mg on selected inflammation-relevant parameters was followed up.
Each subject received two standard 250 mg capsules of azithromycin (Sumamed®, PLIVA Zagreb) on three consecutive days. Immediately before the treatment and 2 h and 30 min, 24 h and 28 days after the third and last dose of azithromycin blood was collected from the cubital vein into EDTA-containing tubes. Aliquots were taken for cell counting, smear preparation, polymorphonuclear cell and serum isolation.
Cytokine and chemokine concentrations were determined using ELISA kits. […] Rapid and pronounced decreases in the plasma concentrations of the neutrophil-stimulating chemokine, IL-8, and GR0-α were observed 2 h and 30 min and 24 h after the last dose of azithromycin (Table 1. The concentration of IL-8 returned essentially to baseline after 28 days, while that of GRO-[…] was decreased at this time.

Structure (SMILES): CC[C@H]1OC(=O)[C@H](C)[C@@H](O[C@H]2C[C@@](C)(OC)[C@@H](O)[C@H](C)O2)[C@H](C)[C@@H](O[C@@H]2O[C@H](C)C[C@H](N(C)C)[C@H]2O)[C@](C)(O)C[C@@H](C)CN(C)[C@H](C)[C@@H](O)[C@]1(C)O [azithromycin, 9-deoxo-9-dihydro-9a-methyl-9a-aza-9a-homoerythromycin A]
- IL-1 (serum) (2 h and 30 min after last dose): 0.533 ± 0.15 pg/mL
- IL-1 (serum) (24 hours after last dose): 1.07 ± 0.19 pg/mL
- IL-1 (serum) (28 days after last dose): 0.29 ± 0.20 pg/mL
